According to patent US5629430A, “Trifluoromethylpyrroloindolecarboxylic acid ester and process for production thereof” (Kyorin Pharmaceutical Co., Ltd., priority 1992, dated 1997):
In brackets after ≈: the same amount, converted by molar mass. Where two headings read alike, the source gives them in different places.

Assays:
[1] = test system: P388 mouse leukemia cells; assay: Activity against tumor cell growth (P388, MTT, 72 h); assay type: cell-based; conditions: read-out: IC50 (50% growth inhibition concentration)
Protocol: Using a culture medium RPMI1640 supplemented with 10% inactivated bovine fetal serum, 2 mM glutamine, 100 μ/ml kanamycin sulfate, and 5 μM 2-hydroxyethyldisulfide (This culture medium is hereinafter referred to simply as "culture medium"), P388 mouse leukemia cells were diluted to a concentration of 1.5×10^5 cells/ml in the culture medium, and were placed in each well of 96-well multiplate in 60 μl portions. Separately, the test compound was dissolved in dimethylsulfoxide and was adequately diluted with the culture medium. The diluted solution containing test compound was added to the wells of the above plate respectively in 60 μl portions. Then the cells were incubated in a CO2 -incubator (5% CO2, 37° C.) for 72 hours.
The surviving cell numbers were measured according to the Mosmann's method (J. Immunol. Meth., 65 55-63, 1983) as follows. A 2.5 mg/ml solution of MTT (3-[4,5-dimethylthiazol-2-yl]-2,5-diphenyltetrazolium bromide) in Dulbecco's phosphate buffer solution (PBS) was prepared and added to each of the wells by 20 μl. The cells were further incubated for 3 hours. A 150 μl portion of 0.04N hydrochloric acid-isopropanol solution was added to each of the wells, and MTT-formazane formed was allowed to dissolve by pipetting. The absorbance of the solutions was measured at 540 nm taking the no-cell-containing [solution as the background. The 50% growth inhibition concentration (ICs50) was calculated from ratio of the absorbances of the treated samples to the absorbance of the no-medicine-treated sample, and from the concentration of the test compound.

Colon-26 cells = assay: Antineoplastic activity, mice having Colon-26 cells transplanted subcutaneously; assay type: in vivo, mouse (female, CDF1 strain); conditions: Mus musculus, Colon 26, iv, 168 h, read-out: T/C (average tumor weight, dosed vs. solvent-dosed control)
Protocol: The test compound was dissolved in dimethylsulfoxide, and the solution was adequately diluted with 10% Emulfore EL620(produced by Rhone Poulenc Co.) to prepare the test compound solution. The antineoplastic activity was evaluated as below.
To the lateral region of a female mouse (CDF1 strain, 8 to 12 week age), 1×10^6 Colon-26 cells were transplanted subcutaneously. On the sixth day after the transplantation, the test medicine solution-was injected into the tail vein in a single dose. Seven to twelve mice were employed for the solvent-dosed control group, and five mice were employed for the dosed group. One week after the dosage, the tumor was cut out, and the weight thereof was measured. The antineoplastic effect was evaluated by the ratio (T/C) of the average tumor weight of the dosed group (T) to the average tumor weight of the solvent-dosed control group (C).

[2] = P388 mouse leukemia cells, 72 h, 37° C., MTT
[3] = i.v. 0.5 mg/kg single dose on sixth day, tumor weighed one week after dosage

Row | SMILES | IC50 [1, 2] [ng/mL] | response vs control in vivo at 0.5 mg/kg (Colon-26 cells; [3]) [%] | also measured
1 | COC(=O)c1c(C(F)(F)F)[nH]c2c(OC(=O)N3CCN(C)CC3)cc3c(c12)[C@H](CCl)CN3C(=O)c1cc2cc(NC(=O)Nc3ccc4[nH]c(C(=O)N5C[C@@H](CCl)c6c5cc(OC(=O)N5CCN(C)CC5)c5[nH]c(C(F)(F)F)c(C(=O)OC)c65)cc4c3)ccc2[nH]1 [Example 109, (S,S)-3-3'-[Carbonylbis(imino-1H-indol-5,2-dicarbonyl)]bis-[1-chloromethyl-5-(4-methylpiperazin-1-ylcarbonyl)oxy-7-trifluoromethyl-1,2,3,6-tetrahydropyrrolo[3,2-e]indole-8-carboxylic acid methyl ester]] |  |  | IC50 ([1]; Mus musculus, P388, 72 h): 53 ng/mL (≈ 41 nM); response vs control in vivo at 0.25 mg/kg (Colon-26 cells): 7%
2 | COC(=O)c1c(C(F)(F)F)[nH]c2c(O)cc3c(c12)[C@H](CCl)CN3C(=O)c1cc2cc(NC(=O)c3cc4cc(OC)c(OC)c(OC)c4o3)ccc2[nH]1 [Example 78, Methyl (1S)-1-chloromethyl-5-hydroxy.-7trifluoromethyl-3-[5-(5,6,7-trimethoxybenzofuran-2-ylcarbonyl)amino-1H-indol-2-ylcarbonyl]-1,2,3,6-tetrahydropyrrolo[3,2-e]indole-8-carboxylate] | 0.33 (≈ 0.445 nM) |  | response vs control in vivo at 0.125 mg/kg (Colon-26 cells; i.v. 0.125 mg/kg single dose on sixth day, tumor weighed one week after dosage): 26%
3 | COC(=O)c1c(C(F)(F)F)[nH]c2c(OC(=O)N3CCN(C)CC3)cc3c(c12)[C@H](CCl)CN3C(=O)c1cc2cc(NC(=O)c3cc4c(OC)c(OC)c(OC)cc4cn3)ccc2[nH]1 [Example 97] |  |  | IC50 ([1]; Mus musculus, P388, 72 h): 5.8 ng/mL (≈ 6.6 nM); response vs control in vivo at 0.5 mg/kg (Colon-26 cells): 11%
4 | COC(=O)c1c(C(F)(F)F)[nH]c2c(O)cc3c(c12)[C@H](CCl)CN3C(=O)c1cc2cc(NC(=O)c3cc4c(OC)cccc4o3)ccc2[nH]1 [Example 75, Methyl (1S)-1-chloromethyl-5-hydroxy-3-[5-(4-methoxybenzofuran-2-ylcarbonyl)amino-1H-indol-2-ylcarbonyl]-7-trifluoromethyl-1,2,3,6-tetrahydropyrrolo[3,2-e]indole-8-carboxylate] | 0.74 (≈ 1.09 nM) | 17 | 
5 | COC(=O)c1c(C(F)(F)F)[nH]c2c1[C@@]13C[C@@H]1CN(C(=O)c1cc4cccc(OC)c4o1)C3=CC2=O [Example 86, Methyl (7bR, 8aS)-2-(7-methoxybenzofuran-2-ylcarbonyl)-6-trifluoromethyl-1,2,8,8a-tetrahydrocyclopropa[c]pyrrolo[3,2-e]indol-4 (5H)-one-7-carboxylate] | 1.1 (≈ 2.26 nM) | 40 | 
6 | CCN(CC)c1ccc2cc(C(=O)Nc3ccc4[nH]c(C(=O)N5C[C@@H](CCl)c6c5cc(O)c5[nH]c(C(F)(F)F)c(C(=O)OC)c65)cc4c3)oc2c1 [Example 79, Methyl (1S)-1-chloromethyl-3-[5-(6-diethylaminobenzofuran-2-ylcarbonyl)amino-1H-indol-2-ylcarbonyl]-5-hydroxy-7-trifluoromethyl-1,2,3,6tetrahydropyrrolo[3,2-e]indole-8-carboxylate] | 2.1 (≈ 2.91 nM) | 9 | 
7 | COC(=O)c1c(C(F)(F)F)[nH]c2c(OC(=O)N3CCN(C)CC3)cc3c(c12)[C@H](CCl)CN3C(=O)c1cc2cc(NC(=O)c3cc4cccc(OC)c4o3)ccc2[nH]1 [Example 99, Methyl (1S)-1-chloromethyl-3-[5[(7-methoxybenzofuran-2-ylcarbonyl)amino]-1H-indol-2-ylcarbonyl]-5-(4-methylpiperazin-1-ylcarbonyl)oxy-7-trifluoromethyl-1,2,3,6-tetrahydropyrrolo[3,2-e]indole-8-carboxylate] |  |  | response vs control in vivo at 2 mg/kg (Colon-26 cells): 5%
